Source: patent US9617256B2 (priority 2007, dated 2017)
≈ marks a conversion by molar mass, not a printed value.

Columns and labels:
AECO001 (ATCC25922) = assay: MIC broth microdilution, AECO001; assay type: cell-based, E. coli; details: for MIC: Escherichia coli, ATCC25922, read-out: MIC AECO001
Procedure, shortened: (§1)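 Incubation: 35° C., ambient air, 18-24 h. Medium: cation-adjusted Mueller-Hinton broth with 2-fold serial dilutions of drug. Inoculum: 3×10^5–7×10^5 CFU/mL final, per CLSI microdilution method.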

[1] = test system: AABA1060 (clinical isolate of Acinetobacter baumannii); assay: MIC broth microdilution, AABA1060; assay type: cell-based; details: for MIC: Acinetobacter baumannii, read-out: MIC AABA1060
Procedure, shortened: as §1

APAE001 (ATCC27853) = assay: MIC broth microdilution, APAE001; assay type: cell-based, P. aeruginosa; details: for MIC: Pseudomonas aeruginosa, ATCC27853, read-out: MIC APAE001, APAE001 is ATCC27853
Procedure, shortened: as §1

[2] = test system: ASAU001 (laboratory strain of S. aureus, ATCC29213); assay: MIC broth microdilution, ASAU001; assay type: cell-based; details: for MIC: Staphylococcus aureus, ATCC29213, read-out: MIC ASAU001
Procedure, shortened: as §1

[3] = test system: AECO063 (ATCC25922 bearing an acrAB mutation); assay: microbe, parasite or virus in culture; assay type: cell-based, E. coli; details: for MIC: Escherichia coli, ATCC25922, read-out: MIC AECO063
Procedure, shortened: as §1

[4] = test system: APAE006 (strain of P. aeruginosa in which all efflux pumps are inactivated); assay: microbe, parasite or virus in culture; assay type: cell-based; details: for MIC: Pseudomonas aeruginosa, read-out: MIC APAE006, P. aeruginosa, all efflux pumps inactivated
Procedure, shortened: (§2)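 Broth microdilution (CLSI); CA-MHB; 3×10^5–7×10^5 CFU/mL final; 2-fold dilutions; 35° C., ambient air, 18-24 h. APAE006 lacks all active efflux pumps.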

[5] = test system: APAE006 in the presence of 8 micrograms per milliliter of polymyxin B nonapeptide; assay type: cell-based, P. aeruginosa; details: in the presence of 8 micrograms per milliliter of polymyxin B nonapeptide
Procedure, shortened: as §2

AECO001 HSA AGP = assay: MIC broth microdilution, AECO001 HSA AGP; assay type: cell-based, E. coli; details: for MIC: Escherichia coli
Procedure, shortened: as §1

SMILES	MIC (AECO001 (ATCC25922)) [µg/mL]	MIC [1] [µg/mL]	MIC (APAE001 (ATCC27853)) [µg/mL]	MIC [2] [µg/mL]	MIC [3] [µg/mL]	MIC [4] [µg/mL]	MIC APAE006 + PMBN [5]	MIC (AECO001 HSA AGP) [µg/mL]	MIC AECO001 (AECO001 (ATCC25922); AECO001 is ATCC25922)	MIC AABA1060 ([1]; clinical isolate of Acinetobacter baumannii)	MIC APAE001 (APAE001 (ATCC27853); APAE001 is ATCC27853)	MIC ASAU001 ([2]; S. aureus ATCC29213)	MIC AECO063 ([3]; ATCC25922 bearing an acrAB mutation)	MIC APAE006 ([4]; P. aeruginosa, all efflux pumps inactivated)	MIC AECO001 HSA AGP (AECO001 HSA AGP)
C[C@@H](N)[C@H](NC(=O)c1ccc(C#Cc2ccc(CNC3CCC3)cc2)cc1)C(=O)NO [Example 119-2]	2 to 16 (≈ 4.76 to 38 µM)	> 64	< 2	> 64	2 to 16 (≈ 4.76 to 38 µM)	< 2	A (MIC's of 2.0 μg/mL or less = A)	16 to 64 (≈ 38 to 152 µM)							
C[C@@H](N)[C@H](NC(=O)c1ccc(C#Cc2ccc(CNCc3nccn3C)cc2)cc1)C(=O)NO [Example 119-3]	2 to 16 (≈ 4.34 to 34.7 µM)	16 to 64 (≈ 34.7 to 139 µM)	2 to 16 (≈ 4.34 to 34.7 µM)	> 64	< 2	< 2	A (MIC's of 2.0 μg/mL or less = A)	2 to 16 (≈ 4.34 to 34.7 µM)							
CCNCc1ccc(C#Cc2ccc(C(=O)N[C@H](C(=O)NO)[C@@H](C)N)cc2)cc1 [Example 119-6]	2 to 16 (≈ 5.07 to 40.6 µM)	16 to 64 (≈ 40.6 to 162 µM)	< 2	16 to 64 (≈ 40.6 to 162 µM)	< 2	< 2	A (MIC's of 2.0 μg/mL or less = A)	2 to 16 (≈ 5.07 to 40.6 µM)							
CCOCc1ccc(C#Cc2ccc(C(=O)N[C@H](C(=O)NO)[C@@H](C)N)cc2)cc1 [Example 120-1, N-((1S,2R)-2-Amino-1-hydroxycarbamoyl-propyl)-4-(4-ethoxymethyl-phenylethynyl)-benzamide]	< 2	2 to 16 (≈ 5.06 to 40.5 µM)	< 2	16 to 64 (≈ 40.5 to 162 µM)	< 2	< 2	A (MIC's of 2.0 μg/mL or less = A)	2 to 16 (≈ 5.06 to 40.5 µM)							
C[C@@H](N)[C@H](NC(=O)c1ccc(C#Cc2ccc(CS(C)(=O)=O)cc2)cc1)C(=O)NO [Example 120-2]	2 to 16 (≈ 4.66 to 37.3 µM)	16 to 64 (≈ 37.3 to 149 µM)	2 to 16 (≈ 4.66 to 37.3 µM)	16 to 64 (≈ 37.3 to 149 µM)	< 2	< 2	A (MIC's of 2.0 μg/mL or less = A)	16 to 64 (≈ 37.3 to 149 µM)							
C[C@@H](N)[C@H](NC(=O)c1ccc(C#Cc2ccc(CCO)cc2)cc1)C(=O)NO [Example 120-3]	< 2	2 to 16 (≈ 5.24 to 41.9 µM)	< 2	> 64	< 2	< 2	A (MIC's of 2.0 μg/mL or less = A)	2 to 16 (≈ 5.24 to 41.9 µM)							
O=CN(O)CCNC(=O)c1ccc(C#Cc2ccc(CN3CCOCC3)cc2)cc1 [Example 127-1, N-[2-(Formyl-hydroxyamino)-ethyl]-4-(4-morpholin-4-ylmethyl-phenylethynyl)-benzamide]	16 to 64 (≈ 39.3 to 157 µM)	> 64	> 64	> 64	2 to 16 (≈ 4.91 to 39.3 µM)	16 to 64 (≈ 39.3 to 157 µM)	C (MIC's of greater than 16.0 μg/mL to 64.0 μg/mL = C)	16 to 64 (≈ 39.3 to 157 µM)							
O=CN(O)CC(CO)NC(=O)c1ccc(C#Cc2ccc(CN3CCOCC3)cc2)cc1 (stereo not shown) [Example 128-1, N-[2-(Formyl-hydroxy-amino)-1-hydroxymethyl-ethyl]-4-(4-morpholin-4-yl-methyl-phenylethynyl)-benzamide]							C (MIC's of greater than 16.0 μg/mL to 64.0 μg/mL = C)		C (MIC's of greater than 16.0 μg/mL to 64.0 μg/mL = C)	C (MIC's of greater than 16.0 μg/mL to 64.0 μg/mL = C)	C (MIC's of greater than 16.0 μg/mL to 64.0 μg/mL = C)	C (MIC's of greater than 16.0 μg/mL to 64.0 μg/mL = C)	C (MIC's of greater than 16.0 μg/mL to 64.0 μg/mL = C)	C (MIC's of greater than 16.0 μg/mL to 64.0 μg/mL = C)	C (MIC's of greater than 16.0 μg/mL to 64.0 μg/mL = C)
C[C@@H](N)[C@H](NC(=O)c1ccc(C#Cc2ccc(CN)cc2)cc1)C(=O)NO [Example 131-1, N-((1S,2R)-2-Amino-1-hydroxycarbamoyl-propyl)-4-(4-aminomethyl-phenylethynyl)-benzamide]	16 to 64 (≈ 43.7 to 175 µM)	> 64	2 to 16 (≈ 5.46 to 43.7 µM)	> 64	16 to 64 (≈ 43.7 to 175 µM)	< 2	A (MIC's of 2.0 μg/mL or less = A)	> 64							
C[C@@H](N)[C@H](NC(=O)c1ccc(C#Cc2ccc(CNS(C)(=O)=O)cc2)cc1)C(=O)NO [Example 131-2]	2 to 16 (≈ 4.5 to 36 µM)	16 to 64 (≈ 36 to 144 µM)	< 2	> 64	< 2	< 2	A (MIC's of 2.0 μg/mL or less = A)	16 to 64 (≈ 36 to 144 µM)							
C[C@@H](N)[C@H](NC(=O)c1ccc(C#Cc2ccc(CNC(=N)N)cc2)cc1)C(=O)NO [Example 131-3, N-((1S,2R)-2-Amino-1-hydroxycarbamoyl-propyl)-4-(4-guanidinomethyl-phenylethynyl)-benzamide]	16 to 64 (≈ 39.2 to 157 µM)	16 to 64 (≈ 39.2 to 157 µM)	2 to 16 (≈ 4.9 to 39.2 µM)	16 to 64 (≈ 39.2 to 157 µM)	16 to 64 (≈ 39.2 to 157 µM)	< 2	A (MIC's of 2.0 μg/mL or less = A)	16 to 64 (≈ 39.2 to 157 µM)							
